The values below come from patent US20230365533A1, “BICYCLOHEPTANE PYRROLIDINE OREXIN RECEPTOR AGONISTS” (MERCK SHARP & DOHME CORP., priority 2021, published 2023).

In general, pIC50 refers to −log10 of the IC50, conventionally taken in molar units.

SMILES strings stand for the structures. pIC50: −log10 of the molar value.

The assay addresses T1, human OX2R (Homo sapiens, UniProt O43614).
T1 construct: expressed in transfected cells; host or cells: CHO (Chinese hamster ovary) cells, grown under G418 selection
T1 sequence (O43614 1-444): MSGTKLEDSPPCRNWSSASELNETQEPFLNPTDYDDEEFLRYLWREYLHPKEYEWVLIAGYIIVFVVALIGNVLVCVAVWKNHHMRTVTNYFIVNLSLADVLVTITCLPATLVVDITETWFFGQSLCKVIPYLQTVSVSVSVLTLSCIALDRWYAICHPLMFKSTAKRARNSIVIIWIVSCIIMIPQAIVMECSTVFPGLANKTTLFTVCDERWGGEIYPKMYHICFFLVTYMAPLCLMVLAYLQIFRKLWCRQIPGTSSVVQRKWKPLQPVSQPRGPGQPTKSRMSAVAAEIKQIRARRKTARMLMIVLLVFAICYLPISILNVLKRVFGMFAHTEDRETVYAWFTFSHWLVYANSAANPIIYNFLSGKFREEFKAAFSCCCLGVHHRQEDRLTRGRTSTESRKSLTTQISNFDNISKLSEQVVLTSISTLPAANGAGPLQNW
Briefly: IPOne (IP-1) orexin receptor agonist assay in CHO cells expressing human OX2R. It is filed as cell-based. Particulars: IPOne assay, CHO cells expressing human OX2R, 2 hours incubation; read-out: hoX2R_IP IC50. From the text:
The utility of the compounds in accordance with the present invention as orexin receptor OX1R and/or OX2R agonists may be readily determined without undue experimentation by methodology well known in the art. Both the OX1R and/or OX2R G-coupled protein receptors (GPCRs) couple through the Gaq signaling pathway, which ultimately promotes calcium mobilization via inositol triphosphate (IP3) production. The half-life of IP-3 is relatively short, being rapidly metabolized to inositol monophosphate (IP-1), which can be readily detected using a commercially available assay kit (IP-One; Cisbio; cat #621PAPEC) coupled with a cell line expressing the target receptor(s) of interest. The utility of the compounds in accordance with the present invention as orexin receptor OX1R and/or OX2R agonists may be determined utilizing this assay.
In a typical experiment, the OX1 and OX2 receptor agonist activity is determined in accordance with the following general experimental method. Chinese hamster ovary (CHO) cells expressing human OX1R and/or the human OX2R were grown in Iscove's modified DMEM containing glutaMAX™, 1% G418, 100 U/mL penicillin, 100 μg/mL streptomycin and 10% heat-inactivated qualified fetal bovine serum (FBS). The OX2R cells were seeded at 10,000 cells/well/50 μL and the OX1R cells were seeded at 20,000 cells/well/50 μL into 384-well white tissue culture plates (Greiner; cat #781080). All cell/media reagents were from GIBCO-Invitrogen Corp. The seeded cell plate(s) were incubated at 37° C. with 5% CO2 and 85% humidity for 20-24 hours. On the day of the assay, assay-ready compound plates were prepared using an acoustic liquid handler (ECHO; Labcyte), which dispensed sufficient volume of test compound stock (10 mM in DMSO) or 100% DMSO to prepare 10 point, ½-log dilutions in a final volume of 202.5 nL/well in all test wells of a 384-well diamond plate (Labcyte). Following completion of assay-ready plates, importantly, the next three steps were performed with minimal delay: 1) 20 μl of 1×stimulation buffer was added to the compound plate using a Multidrop Combi (small cassette, Thermo Fisher Scientific cat #24073290); 2) culture medium was removed from the cell plate using the Bluewasher plate washer (gentle spin; BlueCatBio); 3) 14 μl of compound/stimulation buffer mixture was added to the cell plate using a Bravo liquid handler (Agilent) prior to incubating cell plates at 37° C. with 5% CO2 and 85% humidity for 1 or 2 hours (OX1R and OX2R, respectively). During this incubation, IP-one detection reagents were prepared (38:1:1 lysis buffer:D2:AB-cryptate reagents). Six μL of mixed detection reagents were added to the cell plate using a Multidrop Combi (small cassette, Thermo Fisher Scientific cat #24073290) and incubated 60 minutes at room temperature in the dark. Fluorescence signal was detected using an Envision plate reader (Perkin Elmer) [LANCE/DELFIA Dual Enh (Em: APC 665; Ex: Cy5 620)].
For each compound, data were fit to a four parameter logistic fit (ActivityBase software) and the EC50 was reported as the inflection point of the resulting curve. Percent effect for each test compound was determined as the percentage of sample raw value/mean max effect, where the mean max effect was derived from the mean raw value of 32 control wells per assay plate (using Orexin A (cat #003-30) at 1 μM for human OX1R and a reference compound at 1 uM with 100% activity previously established by comparison to Orexin A for human OX2R). The intrinsic orexin receptor agonist activity of a compound which may be used in the present invention may be determined by these assays.
For the molecule `COC(=O)N1[C@H](C)C[C@H](NS(=O)(=O)C2COC2)[C@@H]1CO[C@H]1CC[C@@]2(c3ncc(F)cn3)C[C@H]2C1` [Example 40, methyl (2R,3S,5R)-2-((((1S,3S,6R)-6-(5-fluoropyrimidin-2-yl)bicyclo[4.1.0]heptan-3-yl)oxy)methyl)-5-methyl-3-(oxetane-3-sulfonamido)pyrrolidine-1-carboxylate], the negative logarithm of the IC50 (pIC50) is 8.36.

Consider `CCC(C)S(=O)(=O)N[C@H]1C[C@@H](C)N(C(=O)OC)[C@H]1CO[C@H]1CC[C@@]2(c3ncc(F)cn3)C[C@H]2C1` (stereo partly drawn) [Example 41, methyl (2R,3S,5R)-2-((((1S,3S,6R)-6-(5-fluoropyrimidin-2-yl)bicyclo[4.1.0]heptan-3-yl)oxy)methyl)-5-methyl-3-((1-methylpropyl)sulfonamido)pyrrolidine-1-carboxylate], for which the pIC50 is 8.10.

Turning to `COC(=O)N1[C@H](C)C[C@H](NS(=O)(=O)C2CC2)[C@@H]1CO[C@H]1CC[C@@]2(c3ncc(F)cn3)C[C@H]2C1` [Example 42, methyl (2R,3S,5R)-3-(cyclopropanesulfonamido)-2-((((1S,3S,6R)-6-(5-fluoropyrimidin-2-yl)bicyclo[4.1.0]heptan-3-yl)oxy)methyl)-5-methylpyrrolidine-1-carboxylate], the pIC50 is 8.52. Turning to `COC(=O)N1[C@H](C)C[C@H](NS(=O)(=O)N2CCC2)[C@@H]1CO[C@@H]1CC[C@]2(c3ncc(F)cn3)C[C@@H]2C1` [Example 43, methyl (2R,3S,5R)-3-(azetidine-1-sulfonamido)-2-((((1R,3R,6S)-6-(5-fluoropyrimidin-2-yl)bicyclo[4.1.0]heptan-3-yl)oxy)methyl)-5-methylpyrrolidine-1-carboxylate], the negative logarithm of the IC50 (pIC50) was 7.31. Under `COC(=O)N1[C@H](C)C[C@H](NS(=O)(=O)C(F)(F)F)[C@@H]1CO[C@@H]1CC[C@]2(c3ncc(F)cn3)C[C@@H]2C1` [Example 44, methyl (2R,3S,5R)-2-((((1R,3R,6S)-6-(5-fluoropyrimidin-2-yl)bicyclo[4.1.0]heptan-3-yl)oxy)methyl)-5-methyl-3-((trifluoromethyl)sulfonamido)pyrrolidine-1-carboxylate] stands 7.76; under `COC(=O)N1[C@H](C)C[C@H](NS(=O)(=O)Cc2ccccc2)[C@@H]1CO[C@@H]1CC[C@]2(c3ncc(F)cn3)C[C@@H]2C1` [Example 45, methyl (2R,3S,5R)-2-((((1R,3R,6S)-6-(5-fluoropyrimidin-2-yl)bicyclo[4.1.0]heptan-3-yl)oxy)methyl)-5-methyl-3-((phenylmethyl)sulfonamido)pyrrolidine-1-carboxylate], 6.76; under `COC(=O)N1[C@H](C)C[C@H](NS(=O)(=O)C(C)C)[C@@H]1CO[C@@H]1CC[C@]2(c3ncc(F)cn3)C[C@@H]2C1` [Example 46, methyl (2R,3S,5R)-2-((((1R,3R,6S)-6-(5-fluoropyrimidin-2-yl)bicyclo[4.1.0]heptan-3-yl)oxy)methyl)-5-methyl-3-((1-methylethyl)sulfonamido)pyrrolidine-1-carboxylate], 7.87.

`CCS(=O)(=O)N[C@H]1C[C@@H](C)N(C(=O)OC)[C@H]1CO[C@@H]1CC[C@]2(c3ncc(F)cn3)C[C@@H]2C1` [Example 47, methyl (2R,3S,5R)-3-(ethylsulfonamido)-2-((((1R,3R,6S)-6-(5-fluoropyrimidin-2-yl)bicyclo[4.1.0]heptan-3-yl)oxy)methyl)-5-methylpyrrolidine-1-carboxylate]: the negative-log IC50 (pIC50) was 7.86. `COC(=O)N1[C@H](C)C[C@H](NS(=O)(=O)C(F)F)[C@@H]1CO[C@H]1CC[C@@]2(c3ncc(F)cn3)C[C@H]2C1` [Example 48, methyl (2R,3S,5R)-3-((difluoromethyl)sulfonamido)-2-((((1S,3S,6R)-6-(5-fluoropyrimidin-2-yl)bicyclo[4.1.0]heptan-3-yl)oxy)methyl)-5-methylpyrrolidine-1-carboxylate]: the pIC50 is 8.85.
